In patent US6555676B2, “Biologically active phosphotriester-type compounds” (Centre National de la Recherche Scientifique, priority 1992, dated 2003):
Read-outs that look alike come from different tables or passages of the source.

Columns and labels:
[1] = target: reverse transcriptase (Human immunodeficiency virus type 1 group M subtype B, UniProt P04585); conditions: cited from earlier work
[2] = system: non-infected CEM-TK− cells; assay: Toxic effect on non-infected cells (MTT/formazan), CEM-TK−; type: cell-based, Human; conditions: 50% inhibition of formazan formation, 5 days
Experimental: (§1) The toxic effect on non-infected CEMs is assessed by a calorimetric reaction based on the capacity of living cells to reduce 3-(4,5-dimethylthiazol-2-yl)-2,5-diphenyltetrazolium bromide into formazan after incubation for 5 days in the presence of various concentrations of the compounds.

[3] = system: HIV-1 (LAI isolate); assay: Anti-HIV-1 activity (RTase in culture supernatant) in CEM-TK− cells; type: cell-based; conditions: for EC50: CEM-TK− cells, lowest concentration reducing RTase production by at least 50%, 5 days, read-out: ED50 (the source's name)
Experimental: (§2) HIV-1 replication (LAI isolate) in CEM cells is measured by assaying the reverse transcriptase (RTase) in the culture supernatant after infection for 5 days. This activity reflects the presence of the virus released by the cells. After adsorption of the virus, the test compounds are added, at various concentrations, to the culture medium.
(§3) Antiviral activity is expressed as the lowest concentration of compound which reduces the production of RTase by at least 50% (ED50)
(§4) The compounds were tested as described in Example 5 above.
(§5) The iso-SATE pronucleotides of Examples 16A and 16B were evaluated for their inhibitory effects on the replication of HIV-1 in CEM-SS and in thymidine-kinase deficient cell lines (CEM/TD). For comparison, the parent nucleosides ddA and d4T, and the corresponding bis(SATE) phosphotriesters bis(tBuSATE)ddAMP (the compound of Example 9) and bis(tBuSATE)d4TMP, were evaluated in the same experiments.

[4] = system: non-infected MT-4 cells; assay: Toxic effect on non-infected cells (MTT/formazan), MT-4; type: cell-based, Human; conditions: 50% inhibition of formazan formation
[5] = system: non-infected CEM-SS cells; assay: Toxic effect on non-infected cells (MTT/formazan), CEM-SS; type: cell-based, Human; conditions: 50% inhibition of formazan formation, 5 days
Experimental: as §1

[6] = type: in vitro ADME, Human
Experimental: (§6) The “ISRP on line” HPLC technique (“On-line Internal Surface Reversed-Phase Cleaning: The Direct HPLC Analysis of Crude Biological Samples”, A. Pompon, I. Lefebvre and J. L. Imbach, Biochemical Pharmacology, 43,1769-1775 (1992) was used for this study, the compound studied being incubated respectively in culture medium (RPMI/10% inactivated serum) and in a total cell extract (CEM).
(§7) Certain kinetic studies comparing the compound of Example 16A, i.e., S,S′-bis(O-pivaloyl-2-oxyethyl) O-2, 3-dideoxyadenosin-5′-yl phosphorodithiolate, also designated as iso[Bis(SATE)ddA] and its isosteric compound of Example 9, i.e., O-(2′,3′-dideoxyadenosin-5′-yl)-O,O′-bis([…]) phosphate, also designated as [Bis(SATE)ddAMP] were effected. The kinetic were studies were performed in culture medium (RPMI containing […] heat-inactivated fetal calf serum) in order to evaluate the stability of the pronucleotides in the extracellular medium used for antiviral evaluation in cell culture systems, and in total cell extracts that mimic the behavior of the compounds inside cells. The “on-line ISPR cleaning” HPLC method of Lefebvre et al., J. Med. Chem., 38, 3941-3950, 1995, were used for the studies. The products resulting from the decomposition were characterized by co-injection with authentic samples and/or by coupled HPLC/Mass Spectroscopy. The kinetics of transformation of the two isomeric pronucleotides strongly differed according to the medium. In culture medium the first iso-SATE group was cleaved in 38.5 hr whereas the first SATE group was cleaved in 165 hr. The second iso-SATE group was cleaved in 5.8 hr whereas the second SATE group was cleaved in 46 hr. In total cell extracts, the first iso-SATE group was cleaved in 5.3 hr whereas the SATE group was cleaved in 1 hr.

[7] = type: in vitro ADME
Experimental: as §6, §7

[8] = system: HIV-1 (LAI isolate); assay: Anti-HIV-1 activity (RTase in culture supernatant) in CEM-SS cells; type: cell-based; conditions: lowest concentration reducing RTase production by at least 50%, 5 days, read-out: ED50 (the source's name)
Experimental: as §2, §3, §4, §5

[9] = system: HIV-1; assay: Anti-HIV-1 activity in MT-4 cells; type: cell-based, Human immunodeficiency virus; conditions: for EC50: read-out: ED50 (the source's name)
Experimental: as §2, §3, §4

[10] = culture medium (RPMI with heat-inactivated fetal calf serum)

| SMILES | CD50 [2] | EC50 [3] | CD50 [4] | CD50 [5] | EC50 [8] | further results |
| --- | --- | --- | --- | --- | --- | --- |
| O=c1ccn([C@H]2CC[C@@H](COP(=O)(O)OP(=O)(O)OP(=O)(O)O)O2)c(=O)[nH]1 [2′,3′-Dideoxyuridine 5′-triphosphate] | – | – | – | – | – | inhibition of reverse transcriptase (in words) [1]: excellent inhibitor |
| Cc1cn([C@H]2C[C@H](N=[N+]=[N-])[C@@H](CO)O2)c(=O)[nH]c1=O [AZT, 3′-azido-2′,3,-dideoxythymidine, reference compound] | (CD50 > 10^−4 M) | > 100 µM | (CD50 > 10^−4 M) | (CD50 > 10^−4 M) | – | – |
| CC(=O)SCCOP(=O)(OCCSC(C)=O)OC[C@@H]1CC[C@H](n2cnc3c(N)ncnc32)O1 [Bis(SATE)ddAMP, O-(2′,3′-Dideoxyadenosin-5′-yl)—O,O′-bis(S-acetyl-2-thioethyl)-phosphate] | (CD50 > 10^−5 M) | – | – | – | – | time in which the first (iso-)SATE group was cleaved [6]: 1 h; time in which the first (iso-)SATE group was cleaved [7]: 165 h; time in which the second (iso-)SATE group was cleaved [7]: 46 h |
| CC(=O)SCCOP(=O)(OCCSC(C)=O)OC[C@@H]1CC[C@H](n2cnc3c(=O)[nH]cnc32)O1 [Bis(SATE)ddIMP, O-(2′,3″ -Dideoxyinosin-5′-yl)-O,O′-bis(S-acetyl-2-thioethyl)-phosphate] | (CD50 > 10^−4 M) | – | (CD50 > 10^−4 M) | (CD50 > 10^−4 M) | – | – |
| CC(=O)SCCOP(=O)(OCCSC(C)=O)OC[C@@H]1CC[C@H](n2cc(C)c(=O)[nH]c2=O)O1 [Bis(SATE)ddTMP, O-(2′,3′-Dideoxythymidin-5′-yl)-O,O′-bis(S-acetyl-2-thioethyl)-phosphate] | (CD50 > 10^−4 M) | – | – | – | – | – |
| CC(=O)SCCOP(=O)(OCCSC(C)=O)OC[C@@H]1CC[C@H](n2ccc(=O)[nH]c2=O)O1 [Compound 1, O-(2′,3′-dideoxyuridin-5′-yl)-O,O′-bis(S-acetyl-2-thioethyl)phosphate] | (CD50 7 · 10^−5 M) | 4 µM | (CD50 9 · 10^−5 M) | (CD50 9 · 10^−5 M) | 5 µM | ED50 [9]: 2 · 10^−6 M |
| O=c1ccn([C@H]2CC[C@@H](COP(=O)(OCCSSCCO)OCCSSCCO)O2)c(=O)[nH]1 [Compound 2, O,O′-Bis(S-(2-hydroxyethylsufidyl)-2-thioethyl)-o-(2′,3′-dideoxyuridin-5′-yl)phosphate] | (CD50 8 · 10^−5 M) | 8 µM | – | (CD50 10^−4 M) | 60 µM | half-life in cell extract ([6]; total cell extract (CEM)): less than 5 minutes; half-life in culture medium ([7]; RPMI/10% inactivated serum): 9 h |
| Cc1cn([C@H]2C[C@H](N=[N+]=[N-])[C@@H](COP(=O)(OCCSSCCO)OCCSSCCO)O2)c(=O)[nH]c1=O [Compound 3, O,O′-Bis(S-(2-hydroxyethylsufidyl)-2-thioethyl)-O-(3′azido-3′-deoxythymidin-5′-yl)phosphate] | (CD50 8 · 10^−5 M) | 7 µM | (CD50 8 · 10^−5 M) | (CD50 8 · 10^−5 M) | 0.0007 µM | EC50 [9]: 0.001 µM |
| Nc1ncnc2c1ncn2CCOCP(=O)(OCCSSCCO)OCCSSCCO [Compound 4] | (CD50 4 · 10^−5 M) | 0.08 µM | (CD50 2 · 10^−5 M). | (CD50 > 10^−4 M) | 3 µM | EC50 [9]: 0.8 µM |
| Cc1cn([C@H]2C=C[C@@H](CO)O2)c(=O)[nH]c1=O [d4T, reference compound] | – | – | – | – | – | anti-HIV-1 activity (in words, FIG. 10) ([3]; thymidine-kinase deficient CEM cells): weakly active |
| Nc1ncnc2c1ncn2[C@H]1CC[C@@H](CO)O1 [ddA, reference compound] | (CD50 > 10^−4 M) | – | (CD50 > 10^−4 M) | (CD50 > 10^−4 M) | – | EC50 [9]: 10 µM |
| O=c1[nH]cnc2c1ncn2[C@H]1CC[C@@H](CO)O1 [ddI, reference compound] | (CD50 > 10^−4 M) | – | (CD50 > 10^−4 M) | (CD50 > 10^−4 M) | – | – |
| CC(C)(C)C(=O)OCCSP(=O)(OC[C@@H]1CC[C@H](n2cnc3c(N)ncnc32)O1)SCCOC(=O)C(C)(C)C [iso[Bis(SATE)ddA], S,S′-bis (Ö-pivaloyl-2-oxyethyl) O2′,3′-dideoxyadenosin-5′-yl phosphorodithiolate] | – | – | – | – | – | time in which the first (iso-)SATE group was cleaved ([6]; total cell extracts): 5.3 h; time in which the first (iso-)SATE group was cleaved [7, 10]: 38.5 h; time in which the second (iso-)SATE group was cleaved [7, 10]: 5.8 h |
